Reference: US20170087174A1, “COMBINATION THERAPY REGIMEN FOR TREATMENT OF HCV” (JANSSEN PHARMACEUTICALS, INC., priority 2015, published 2017)
“Also recorded” adds a separate entry of the source. Read-outs that look alike come from different tables or passages of the source.

Legend:
P-gp = P-gp (Homo sapiens, UniProt P08183); conditions: in vitro, cited from earlier work
OATP1B1 = molecular target: T1, OATP1B1 (Homo sapiens, UniProt Q9Y6L6); conditions: in vitro, cited from earlier work
T1 sequence (Q9Y6L6 1-691): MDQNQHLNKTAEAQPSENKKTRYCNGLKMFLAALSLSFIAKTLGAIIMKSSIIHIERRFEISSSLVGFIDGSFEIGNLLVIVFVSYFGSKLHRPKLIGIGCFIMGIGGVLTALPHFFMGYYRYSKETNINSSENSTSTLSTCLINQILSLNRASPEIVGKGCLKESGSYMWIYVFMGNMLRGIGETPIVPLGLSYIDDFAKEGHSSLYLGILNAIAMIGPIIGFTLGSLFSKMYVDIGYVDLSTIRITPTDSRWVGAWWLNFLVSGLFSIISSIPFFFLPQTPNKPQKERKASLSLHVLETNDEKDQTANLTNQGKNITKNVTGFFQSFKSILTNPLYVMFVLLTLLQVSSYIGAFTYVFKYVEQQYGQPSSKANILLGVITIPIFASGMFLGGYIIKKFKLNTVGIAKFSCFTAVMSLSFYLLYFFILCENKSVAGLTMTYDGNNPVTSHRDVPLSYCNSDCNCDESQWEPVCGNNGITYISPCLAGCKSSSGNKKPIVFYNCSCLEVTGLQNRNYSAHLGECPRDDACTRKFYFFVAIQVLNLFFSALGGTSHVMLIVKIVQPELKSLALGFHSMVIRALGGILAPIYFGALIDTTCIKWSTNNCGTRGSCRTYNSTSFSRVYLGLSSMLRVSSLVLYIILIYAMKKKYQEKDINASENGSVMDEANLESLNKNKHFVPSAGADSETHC

OATP1B3 = molecular target: T2, OATP1B3 (Homo sapiens, UniProt Q9NPD5); conditions: in vitro; cited from earlier work
T2 sequence (Q9NPD5 1-702): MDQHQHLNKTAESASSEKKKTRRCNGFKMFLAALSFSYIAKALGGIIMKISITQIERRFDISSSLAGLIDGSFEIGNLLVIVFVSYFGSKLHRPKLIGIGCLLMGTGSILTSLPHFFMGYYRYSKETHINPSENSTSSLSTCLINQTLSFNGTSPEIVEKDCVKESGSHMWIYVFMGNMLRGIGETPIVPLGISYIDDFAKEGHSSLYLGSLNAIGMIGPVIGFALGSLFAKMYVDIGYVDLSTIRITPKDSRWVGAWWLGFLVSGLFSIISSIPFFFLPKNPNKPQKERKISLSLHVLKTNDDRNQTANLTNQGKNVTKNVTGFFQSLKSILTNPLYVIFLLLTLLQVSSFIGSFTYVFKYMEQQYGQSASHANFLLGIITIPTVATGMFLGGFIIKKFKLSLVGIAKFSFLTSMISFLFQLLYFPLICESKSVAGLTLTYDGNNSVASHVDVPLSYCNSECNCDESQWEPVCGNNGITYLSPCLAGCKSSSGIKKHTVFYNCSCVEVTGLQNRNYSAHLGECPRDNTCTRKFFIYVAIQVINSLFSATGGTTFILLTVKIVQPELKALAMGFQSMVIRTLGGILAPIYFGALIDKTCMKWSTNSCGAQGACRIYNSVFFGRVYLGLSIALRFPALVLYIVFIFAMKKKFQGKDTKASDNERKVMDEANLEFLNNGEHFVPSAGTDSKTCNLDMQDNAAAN

[1] = tested on: CYP (cytochrome P450 enzymes); test: CYP inhibition in vitro; conditions: for CYP inhibition potential (in words): on any CYP
[2] = Phase-1 drug-drug interaction study in healthy volunteers (Compound (III) 800 mg, SMV 150 mg, Odalasvir 150 mg loading then 50 mg, once daily): plasma PK; type: in vivo, human; conditions: for AUC0-24 / Cmax: human
Excerpt: The following daily doses were employed:

[3] = PK of single agents vs fixed dose combinations (FDC), single oral dose in healthy volunteers; type: in vivo, human; conditions: for Cmax / AUC(0-t) / AUC(0-inf) / Tmax: human, plasma, oral; for Cmax: read-out: Cmax (mean ± SD); for AUC(0-t): read-out: AUClast (mean ± SD); for AUC(0-inf): read-out: AUC∞ (mean ± SD); for Tmax: read-out: tmax (median [range])
Description: SMV (100 mg), ODV (50 mg), and Compound (III) (800 mg) were administered as three different formulations or together as single doses in vivo to healthy volunteers. The arms of the study included: • Arm 1 (Reference Arm): Single oral doses of single agents, one SMV 100-mg capsule, one ODV 50-mg tablet as granule layered solid dispersion with copovidone and poloxamers, and two Compound (III) 400-mg tablets, administered together. • Arm 2: Single oral dose of fixed dose combination (FDC02): SMV 100 mg+ODV 50 mg as a spray dried solid dispersion with HPMC-AS L in a ratio ODV/HPMC-AS L 1/1 w/w+Compound (III) 800 mg • Arm 3: Single oral dose of fixed dose combination (FDC04): SMV 100 mg+ODV 50 mg as a spray dried solid dispersion with HPMC-AS L in a ratio ODV/HPMC-AS L 1/3 w/w+Compound (III) 800 mg • Arm 4: Single oral dose of fixed dose combination (FDC01): SMV 100 mg+ODV 50 mg as a spray dried solid dispersion with copovidone and poloxamers+Compound (III) 800 mg
PK parameters, including Cmax, tmax, AUClast, and AUC∞ were measured for Compound (III), ODV, SMV, and metabolites Compound A-I and Compound A-3 for each Arm of the study. Arms that included fixed dose combinations (FDC) (Arm 2, Arm 3, and Arm 4) were then compared to a single oral dose (Arm 1, the reference Arm). Table 9, Table 10, Table 11, Table 12 and Table 13 display relevant PK parameters and FIG. 9, FIG. 10, FIG. 11, FIG. 12, and FIG. 13 depict the plasma concentration over time of SMV, ODV, Compound A-1, and Compound A-3 for each Arm of the study.

[4] = Arm 1 (reference): single agents together
[5] = Arm 2 (FDC02) vs reference (Arm 1)
[6] = Arm 3 (FDC04) vs reference (Arm 1)
[7] = Arm 4 (FDC01) vs reference (Arm 1)
[8] = Arm 1 (reference): single agents together, SMV 100-mg capsule, ODV 50-mg tablet, two Compound (III) 400-mg tablets
[9] = Arm 2: FDC02, SMV 100 mg + ODV 50 mg (ODV/HPMC-AS L 1/1 w/w) + Compound (III) 800 mg
[10] = Arm 3: FDC04, SMV 100 mg + ODV 50 mg (ODV/HPMC-AS L 1/3 w/w) + Compound (III) 800 mg
[11] = Arm 4: FDC01, SMV 100 mg + ODV 50 mg (copovidone and poloxamers) + Compound (III) 800 mg

P-gp, sequence (P08183 whole entry): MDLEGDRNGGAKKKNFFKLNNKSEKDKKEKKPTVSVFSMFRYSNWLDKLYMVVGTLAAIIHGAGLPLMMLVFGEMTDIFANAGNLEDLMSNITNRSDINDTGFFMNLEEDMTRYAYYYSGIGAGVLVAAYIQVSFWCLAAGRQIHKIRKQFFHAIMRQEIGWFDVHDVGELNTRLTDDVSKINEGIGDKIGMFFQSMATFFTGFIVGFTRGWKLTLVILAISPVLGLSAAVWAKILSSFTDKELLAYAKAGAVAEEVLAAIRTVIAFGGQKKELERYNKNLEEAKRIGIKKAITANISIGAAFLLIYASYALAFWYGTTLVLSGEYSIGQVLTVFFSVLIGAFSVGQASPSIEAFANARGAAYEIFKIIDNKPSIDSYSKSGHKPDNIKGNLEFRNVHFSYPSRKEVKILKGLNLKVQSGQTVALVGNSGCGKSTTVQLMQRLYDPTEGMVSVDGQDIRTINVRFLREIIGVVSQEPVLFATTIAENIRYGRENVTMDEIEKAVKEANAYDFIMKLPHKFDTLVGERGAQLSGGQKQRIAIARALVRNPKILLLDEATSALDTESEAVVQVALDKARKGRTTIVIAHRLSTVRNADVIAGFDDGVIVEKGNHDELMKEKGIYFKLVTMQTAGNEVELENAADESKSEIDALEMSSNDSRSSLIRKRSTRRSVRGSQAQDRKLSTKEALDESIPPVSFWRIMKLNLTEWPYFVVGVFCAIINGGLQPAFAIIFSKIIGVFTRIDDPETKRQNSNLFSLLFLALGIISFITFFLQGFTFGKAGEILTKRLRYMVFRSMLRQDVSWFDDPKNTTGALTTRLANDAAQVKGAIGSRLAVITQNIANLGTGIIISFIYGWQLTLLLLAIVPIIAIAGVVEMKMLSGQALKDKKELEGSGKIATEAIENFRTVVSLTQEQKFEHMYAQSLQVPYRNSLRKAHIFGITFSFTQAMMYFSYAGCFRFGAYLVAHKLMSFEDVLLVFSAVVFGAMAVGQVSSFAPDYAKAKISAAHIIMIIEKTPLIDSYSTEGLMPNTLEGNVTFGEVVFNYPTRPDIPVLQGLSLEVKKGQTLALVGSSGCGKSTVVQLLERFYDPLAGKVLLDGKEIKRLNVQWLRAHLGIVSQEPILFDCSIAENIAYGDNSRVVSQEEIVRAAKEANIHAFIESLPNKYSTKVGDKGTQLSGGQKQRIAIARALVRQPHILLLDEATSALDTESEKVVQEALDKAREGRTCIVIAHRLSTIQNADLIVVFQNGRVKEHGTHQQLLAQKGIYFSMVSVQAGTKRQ

COC(=O)N[C@H](C(=O)N1[C@H](c2nc3cc(-c4cc5ccc4CCc4ccc(c(-c6ccc7[nH]c([C@@H]8C[C@@H]9CCCC[C@@H]9N8C(=O)[C@@H](NC(=O)OC)C(C)C)nc7c6)c4)CC5)ccc3[nH]2)C[C@@H]2CCCC[C@@H]21)C(C)C [ODV, Odalasvir]
P-gp inhibition (in words) (P-gp): moderate inhibition
IC50 (P-gp; read-out: Pgp inhibition IC50): 9.5 µM
OATP1B1 inhibition (in words) (OATP1B1): no inhibition
OATP1B3 inhibition (in words) (OATP1B3): no inhibition
CYP inhibition potential (in words) [1]: does not inhibit
inhibition of any CYP ([1]; up to 10 μM): no inhibition
increase of exposure, effect of the three Compounds ([2]; Compound (III) + SMV + ODV co-administered vs given alone): 1.5 fold
AUC0-24 ([2]; both sexes, plasma, oral, Group 1, Day 20 (ODV + SMV), read-out: AUC0-24): 10800 ng·h/mL
Cmax ([2]; both sexes, plasma, oral, Group 1, Day 20 (ODV + SMV), read-out: Cmax): 649 ng/mL
AUC0-24 ([2]; both sexes, plasma, oral, Group 1, Day 23 (SMV + Compound (III) + ODV), read-out: AUC0-24): 12800 ng·h/mL
Cmax ([2]; both sexes, plasma, oral, Group 1, Day 23 (SMV + Compound (III) + ODV), read-out: Cmax): 744 ng/mL
AUC0-24 ([2]; both sexes, plasma, oral, Group 2, Day 10 (ODV alone), read-out: AUC0-24): 8720 ng·h/mL
Cmax ([2]; both sexes, plasma, oral, Group 2, Day 10 (ODV alone), read-out: Cmax): 582 ng/mL
AUC0-24 ([2]; both sexes, plasma, oral, Group 2, Day 13 (ODV + Compound (III)), read-out: AUC0-24): 10200 ng·h/mL
Cmax ([2]; both sexes, plasma, oral, Group 2, Day 13 (ODV + Compound (III)), read-out: Cmax): 669 ng/mL
AUC0-24 ([2]; both sexes, plasma, oral, Group 2, Day 20 (ODV + SMV), read-out: AUC0-24): 14000 ng·h/mL
Cmax ([2]; both sexes, plasma, oral, Group 2, Day 20 (ODV + SMV), read-out: Cmax): 770 ng/mL
AUC0-24 ([2]; both sexes, plasma, oral, Group 2, Day 23 (ODV + Compound (III) + SMV), read-out: AUC0-24): 14800 ng·h/mL
Cmax ([2]; both sexes, plasma, oral, Group 2, Day 23 (ODV + Compound (III) + SMV), read-out: Cmax): 780 ng/mL
effect of Compound (III) on exposure / bioavailability ([2]; co-administered with Compound (III)): no apparent effect; also recorded: does not alter
increase of exposure caused by SMV ([2]; co-administered with SMV vs without): 1.6 fold
t1/2term (mean ± SD) [3, 4]: 168.6 ± 21.7 h
Least Square Means Ratio, AUClast [3, 5]: 89.66%
Least Square Means Ratio, Cmax [3, 5]: 81.00%
t1/2term (mean ± SD) ([3]; Arm 2: FDC02): 169.0 ± 24.5 h
Least Square Means Ratio, AUClast [3, 6]: 182.32%
Least Square Means Ratio, Cmax [3, 6]: 165.30%
t1/2term (mean ± SD) ([3]; Arm 3: FDC04): 176.0 ± 29.5 h
Least Square Means Ratio, AUClast [3, 7]: 180.14%
Least Square Means Ratio, Cmax [3, 7]: 163.29%
t1/2term (mean ± SD) ([3]; Arm 4: FDC01): 167.8 ± 22.4 h
Cmax [3, 8]: 186 ± 60.4 ng/mL
AUC(0-t) [3, 4]: 6320 ± 2320 ng·h/mL
AUC(0-inf) [3, 4]: 7080 ± 2140 ng·h/mL
Tmax [3, 4]: 6 h
Cmax [3, 9]: 151 ± 54 ng/mL
AUC(0-t) ([3]; Arm 2: FDC02): 5590 ± 1890 ng·h/mL
AUC(0-inf) ([3]; Arm 2: FDC02): 7040 ± 2130 ng·h/mL
Tmax ([3]; Arm 2: FDC02): 6 h
Cmax [3, 10]: 301 ± 80.5 ng/mL
AUC(0-t) ([3]; Arm 3: FDC04): 11500 ± 4390 ng·h/mL
AUC(0-inf) ([3]; Arm 3: FDC04): 14800 ± 5120 ng·h/mL
Tmax ([3]; Arm 3: FDC04): 6 h
Cmax [3, 11]: 298 ± 81.7 ng/mL
AUC(0-t) ([3]; Arm 4: FDC01): 11100 ± 3350 ng·h/mL
AUC(0-inf) ([3]; Arm 4: FDC01): 15700 ± 3560 ng·h/mL
Tmax ([3]; Arm 4: FDC01): 6 h

COc1ccc2c(O[C@@H]3C[C@H]4C(=O)N[C@]5(C(=O)NS(=O)(=O)C6CC6)C[C@H]5/C=C\CCCCN(C)C(=O)[C@@H]4C3)cc(-c3nc(C(C)C)cs3)nc2c1C [SMV, Simeprevir, reference compound]
P-gp inhibition (in words) (P-gp): strong/moderate
OATP1B1 inhibition (in words) (OATP1B1): strong in vitro inhibition
IC50 (OATP1B1; read-out: OATP1B1 inhibition IC50): 0.3 µM
CYP inhibition potential (in words) [1]: limited
AUC0-24 ([2]; both, in vivo): 41258 ng·h/mL
Cmax ([2]; both, in vivo): 2957 ng/mL
t1/2term (mean ± SD) [3, 4]: 8.3 ± 1.8 h
Least Square Means Ratio, AUClast [3, 5]: 127.79%
Least Square Means Ratio, AUC∞ [3, 5]: 126.19%
Least Square Means Ratio, Cmax [3, 5]: 116.50%
t1/2term (mean ± SD) ([3]; Arm 2: FDC02): 8.7 ± 2.3 h
Least Square Means Ratio, AUClast [3, 6]: 133.85%
Least Square Means Ratio, AUC∞ [3, 6]: 132.28%
Least Square Means Ratio, Cmax [3, 6]: 115.24%
t1/2term (mean ± SD) ([3]; Arm 3: FDC04): 9.1 ± 1.6 h
Least Square Means Ratio, AUClast [3, 7]: 117.50%
Least Square Means Ratio, AUC∞ [3, 7]: 116.00%
Least Square Means Ratio, Cmax [3, 7]: 108.22%
t1/2term (mean ± SD) ([3]; Arm 4: FDC01): 8.5 ± 1.5 h
Cmax [3, 8]: 777 ± 225 ng/mL
AUC(0-t) [3, 4]: 9420 ± 3380 ng·h/mL
AUC(0-inf) [3, 4]: 9920 ± 3430 ng·h/mL
Tmax [3, 4]: 6 h
Cmax [3, 9]: 942 ± 431 ng/mL
AUC(0-t) ([3]; Arm 2: FDC02): 12700 ± 6260 ng·h/mL
AUC(0-inf) ([3]; Arm 2: FDC02): 13200 ± 6430 ng·h/mL
Tmax ([3]; Arm 2: FDC02): 6 h
Cmax [3, 10]: 906 ± 321 ng/mL
AUC(0-t) ([3]; Arm 3: FDC04): 12900 ± 5830 ng·h/mL
AUC(0-inf) ([3]; Arm 3: FDC04): 13400 ± 6020 ng·h/mL
Tmax ([3]; Arm 3: FDC04): 6 h
Cmax [3, 11]: 856 ± 318 ng/mL
AUC(0-t) ([3]; Arm 4: FDC01): 11600 ± 6300 ng·h/mL
AUC(0-inf) ([3]; Arm 4: FDC01): 12100 ± 6410 ng·h/mL
Tmax ([3]; Arm 4: FDC01): 6 h
